Reference: US20030144347A1, “Method for treating autoimmune disease” (priority 2001, published 2003)

What was measured:
Format in all cases: in vivo, human
[1] = system: patient suffering from rheumatoid arthritis; test: Case reports: patients suffering from rheumatoid arthritis; details: Example 17; before Topamax
Method: A patient suffering from rheumatoid arthritis was administered 25 mg per day of topiramate with an increase every 10 days by 25 mg until 25 mg, 3 times per day, was achieved. The patient previously took 3 or 4 tablets per day of lortab, seven 2.5 mg tablets of methotrexate once a week, 200 mg per day of minocycline and 10 mg per day of prednisone.
An adolescent patient suffering from rheumatoid arthritis began taking 15 mg per day of topiramate for one week, which was then increased by 15 mg weekly until 45 mg per day, in three divided dosages of 15 mg each, was reached. The patient previously took 3 to 5 mg of prednisone daily.
A patient suffering from rheumatoid arthritis with a positive rheumatic factor about 3 decades earlier, at which time they also experienced polyarthritis and Renaud's phenomena, was treated with prednisone 40 mg per day for six months and was then weaned off the prednisone after one year. In the ensuing years, psoriasis developed on both elbows which was worse in the winter. They were an avid golfer and experienced painful swelling and stiffness of both wrists and hands, especially the left, and back pain and stiffness. […] They were begun on Topamax 15 mg a day which was increased weekly by 15 mg until 45 mg per day was taken in divided doses.

[2] = system: patient suffering from multiple sclerosis; test: Case reports: patients suffering from multiple sclerosis treated with topiramate; details: Example 18; patient's own attempt
Method: A patient suffering from multiple sclerosis was administered 15 mg per day of topiramate. The dosage was increased after 15 days to 30 mg per day. At 15 mg, the patient's involuntary stretch rigid response stopped and the patient was able to get out of bed without falling backward when their feet touched the floor for the first time in nine years.
The patient previously took trazadone 100 mg at bedtime, clonazepan 1 mg three times a day, citalapram 40 mg each morning, gabapentrin 600 mg four times a day, and synthroid 25 mcg per day for two years. They had refused steroids and interferon because of side effects.
The Topamax was increased to 15 mg at bedtime and they reported “no bad bladder accidents” and that their leg and foot cramps had disappeared. […] They were discharged on Topamax 15 mg at bedtime along with previous medications. The patient was much improved medically and emotionally.
The patient returned four weeks later walking with a cane, having worked “10 to 14 hours per day and exhausted from my move with little sleep during the past month”. They reported “insatiable itching all over my body wherever my clothes touch the skin” which […] unsuccessfully tried to treat with cetirizine. […] said […] felt “dizzy, weak, Charlie horses in arches of feet and toes, unable to stand for more than 10 minutes before starting to have gait problems, problems sleeping, having trouble mentally and urine leaking”. […] working diagnoses are Axis I Bipolar disorder, not otherwise specified Axis III multiple sclerosis. […]

[3] = system: patient with rapid mood swings and severe intense itching; test: Case report: patient with rapid mood swings and severe intense itching; details: Example 19
Method: A patient presented with rapid mood swings and a complaint of severe intense itching from clothing tags and some clothing, which began over twenty years ago. They were begun on gabapenten which was increased to 300 mg qid. […] Their itching was unchanged. They were begun on Topamax 12.5 mg at bedtime which was increased weekly by 12.5 mg until 50 mg.

For COc1ccc2cc([C@H](C)C(=O)O)ccc2c1 [Naproxen], the “effect on painful swelling and stiffness” value [1] was “ineffective”.
In the case of O=C(O)COCCN1CCN(C(c2ccccc2)c2ccc(Cl)cc2)CC1 (centres unmarked) [cetirizine], the treatment of itching [2] is reported as “unsuccessfully”.
With NCC1(CC(=O)O)CCCCC1 [gabapenten] the mood ([3]; 300 mg qid) was “a little calmer”, the weight gained ([3]; 300 mg qid, in two weeks) was “five” and the itching ([3]; increased to 300 mg qid) was “unchanged”.
